Patent publication US8557233B2, “Probiotic bifidobacterium strains” (Alimentary Heath Limited, priority 2007, dated 2013)

What follows are compounds tested on B. longum AH1206 (assay: Minimum inhibitory concentration (MIC) of antibiotics). Settings: against B. longum AH1206.
Format: cell-based, Bifidobacterium longum
Experimental: Antibiotic sensitivity profiles of the B. longum strain was determined using the ‘disc susceptibility’ assay. Cultures were grown up in the appropriate broth medium for 24-48 h spread-plated (100 μl) onto agar media and discs containing known concentrations of the antibiotics were placed onto the agar. Strains were examined for antibiotic sensitivity after 1-2 days incubation at 37° C. under anaerobic conditions. Strains were considered sensitive if zones of inhibition of 1 mm or greater were seen. The minimum inhibitory concentration (MIC) for each antibiotic was independently assessed.

minimum inhibitory concentration (MIC) | SMILES
0.32 | CCC[C@@H]1C[C@@H](C(=O)N[C@@H]([C@H]2O[C@H](SC)[C@H](O)[C@@H](O)[C@H]2O)[C@H](C)Cl)N(C)C1 [clindamycin]
0.38 | Cc1ncc([N+](=O)[O-])n1CCO [metronidazole]

SMILES | minimum inhibitory concentration (MIC)
CN[C@H](CC(C)C)C(=O)N[C@H]1C(=O)N[C@@H](CC(N)=O)C(=O)N[C@H]2C(=O)N[C@H]3C(=O)N[C@H](C(=O)N[C@H](C(=O)O)c4cc(O)cc(O)c4-c4cc3ccc4O)[C@H](O)c3ccc(c(Cl)c3)Oc3cc2cc(c3O[C@@H]2O[C@H](CO)[C@@H](O)[C@H](O)[C@H]2O[C@H]2C[C@](C)(N)[C@H](O)[C@H](C)O2)Oc2ccc(cc2Cl)[C@H]1O [vancomycin] | 0.75
